Structures are written as SMILES.

Assay type in all cases: biochemical
The test system of one assay is MYC. Briefly: In vitro transcription-translation (IVTT) assay, MYC reporter. Particulars: IVTT assay, HeLa S3 lysate, MYC reporter, normalized sfGFP/mCherry ratio; half-log dilutions 30 μM-0.1 μM, 2 hrs at 30° C. In a few lines:
(§1)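 Reporter: mCherry, P2A, then 3×FLAG-target peptide-sfGFP fusion, IRES-initiated; HeLa S3 lysate IVTT; cpd dilutions 30 μM−0.1 μM half-log in 100% DMSO (dilution-plate conc); DNA added last; 2 h, 30° C; PBS quench.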

For the next assay, the system named is CCND1. Briefly: In vitro transcription-translation (IVTT) assay, CCND1 reporter. Particulars: IVTT, HeLa S3 lysate, 2 hrs at 30° C. The essentials: as §1
In another assay the test system is CCNE1. Nature of the assay: In vitro transcription-translation (IVTT) assay, CCNE1 reporter. The settings on record: HeLa S3 lysate, 2 hrs at 30° C. The method, then: Each preparation takes 8 cell pellets (4 ml packed volume each, approximately 1.0×10^9 cells per pellet). Thaw cell pellets from −80° C. on ice for 90 mins. Lay pellets horizontally on top of the ice and rotate every 30 mins to ensure even thawing. Once thawed, add 4 mL of cold lysis buffer to each pellet, and using a serological pipet, gently pipet up and down to break up clumps. Incubate resuspended cells in ice for an additional 30 mins (plunged into ice). During 30 min incubation, rinse and RNase-zap (Ambion) glass dounces (use loose pestle “A”), gently dry and place on ice until needed. Prepare RNase-free Eppendorf tubes for spinning and for batch storage. Add batch labels to 1.5-1.7 mL RNase-free microcentrifuge tubes (labeling scheme below). Each batch will have an extra 1.5-1.7 mL RNase-free microcentrifuge tube for 40 μL of lysate, label the top of this tube (labeling scheme below). After 30 min incubation, transfer all 8 mL of cell pellet to dounce. Cell lysis is complete after douncing 100 times. Aliquot cell lysis into 1.5-1.7 mL temporary-microcentrifuge tubes. Place tubes in centrifuge with “fins” out, and spin at 1,200×g for 5 mins. After the first spin use a 1 mL pipet to resuspend each tube and repeat spin. This acts as an additional lysis step, is more vigorous and increases lysate yield. During second spin get liquid N2 and a fresh conical tube on ice. After spin is complete, transfer supernatant (lysate) from microcentrifuge tubes into the 50 mL conical tube and keep on ice. Repeat steps 10-14 for all other cell pellets until completed. Once all cell lysate has been transferred to the 50 mL conical tube pipet to mix so the solution is homogenous. Transfer 1 mL of lysate into batch-labeled microcentrifuge tubes and flash freeze in liquid nitrogen. Be sure to pipet up and down to mix throughout transfer step. Place all tubes in the […] for long-term storage.
In vitro transcription-translation assay setup: Each assay includes a master mix containing lysate and shared components, a 96-well plate containing compound titrations for testing, a 96-well DNA plate with reporter constructs to be tested, 96-well skirted PCR plates, and 96-well flat-bottom, black, fluorescent assay plates. Reaction materials setup: (A) Master mix—15 mL conical tube (3 mL of HeLa S3 Lysate described above; 0.6 mL of ThermoFisher Accessory Proteins (#88882); 1.2 ml of ThermoFisher Reaction Mix (#88882); 0.54 mL of nuclease-free Water); (B) 96-Well Master Mix+Compound Plate (Half-log dilutions (30 μM−0.1 μM) of 4 compounds of interest are prepared in 100% DMSO); 96-Well DNA Plate (Five DNA constructs are plated into single columns within the plate. Row 1 of the column contains nuclease free H2O, all other wells contain 110 ng/μL plasmid DNA). Reactions are started by mixing 155 μL of master mix and 3.5 μL of compound serial dilutions, then 9.1 μL of master mix+compound mixture is aliquoted across 5 96-well plates. Reactions begin with final addition of 2 μL of DNA for a 11.1 μL reaction volume in each well. The entire plate is sealed, and incubated for 2 hrs at 30° C. After 2 hrs, quench the assay using 45 μL of PBS, and transfer 50 μL to a flat-bottom black microplate Quantify the sfGFP and mCherry signals from each well on each plate, taking 3 reads of each plate, and perform data analysis below.
In vitro transcription-translation assay data analysis: Each plate is read three times in channels for both sfGFP and mCherry signals. The average signal across these 3 reads is then calculated for further analysis. Control wells containing no DNA reporter are subtracted from reporter wells in the same column to remove auto-fluorescence of the lysate. Then, the ratio of sfGFP/mCherry is calculated per well, and these ratios are averaged across the triplicate experiments on the same plate. Finally, the ratio of each titration concentration is normalized to the no drug control to create the normalized stalling metric. […]

In another assay the test system is CCNTB1. Nature of the assay: In vitro transcription-translation (IVTT) assay, CCNTB1 reporter. The settings on record: HeLa S3 lysate, 2 hrs at 30° C. The essentials: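 IC50 fitted from the sfGFP/mCherry fluorescence ratio, normalized to no-drug control after no-DNA background subtraction. Reactions ran 2 h at 30° C in HeLa S3 cell lysate with reporter plasmid DNA and half-log compound titrations (30 μM−0.1 μM, in DMSO).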

For `COc1ccc(C[C@H]2NC[C@H](O)[C@H]2OC(=O)NCc2ccnc(C(F)(F)F)c2)cc1` [V188050, (2R,3S,4S)-4-hydroxy-2-[(4-methoxyphenyl)methyl]pyrrolidin-3-yl N-{[2-(trifluoromethyl)pyridin-4-yl]methyl}carbamate], the IC50 in the assay with MYC, with CCND1, in the assay on CCNE1 and with CCNTB1 was less than 10 µM each time.

For `COc1ccc(C[C@H]2NC[C@H](O)[C@H]2OC(=O)NCCO[C@@H]2CCNC2)cc1` [V188071, (2R,3S,4S)-4-hydroxy-2-[(4-methoxyphenyl)methyl]pyrrolidin-3-yl N-{2-[(3R)-pyrrolidin-3-yloxy]ethyl}carbamate], the IC50 with MYC is 10 to 20 µM; in the assay on CCND1, 10 to 20 µM; with CCNE1, less than 10 µM; with CCNTB1 it was less than 10 µM.

With `COc1ccc(C[C@H]2NC[C@H](O)[C@H]2OC(=O)NC[C@H]2CCNC2)cc1F` [V188076, (2R,3S,4S)-2-[(3-fluoro-4-methoxyphenyl)methyl]-4-hydroxypyrrolidin-3-yl N-[(3S)-pyrrolidin-3-ylmethyl]carbamate], the IC50 was more than 30 µM with MYC, 20 to 30 µM with CCND1, 10 to 20 µM in the assay with CCNE1 and less than 10 µM in the assay with CCNTB1.

As for `COc1ccc(C[C@H]2NC[C@H](O)[C@H]2OC(=O)NCCn2ccnc2[N+](=O)[O-])cc1` [V188085, (2R,3S,4S)-4-hydroxy-2-[(4-methoxyphenyl)methyl]pyrrolidin-3-yl N-[2-(2-nitroimidazol-1-yl)ethyl]carbamate], the IC50 was 10 to 20 µM in the assay on MYC, 20 to 30 µM with CCND1, less than 10 µM in the assay with CCNE1 and less than 10 µM in the assay on CCNTB1.

Turning to `COc1ccc(C[C@H]2NC[C@H](O)[C@H]2OC(=O)NCCn2cc[nH]c2=O)cc1` [V188088, (2R,3S,4S)-4-hydroxy-2-[(4-methoxyphenyl)methyl]pyrrolidin-3-yl N-[2-(2-oxo-3H-imidazol-1-yl)ethyl]carbamate], the IC50 is 20 to 30 µM with MYC, more than 30 µM with CCND1, 10 to 20 µM with CCNE1 and less than 10 µM with CCNTB1.

Turning to `COc1ccc(C[C@H]2NC[C@H](O)[C@H]2OC(=O)NC[C@H]2CCN(C)C2)cc1` [V188108, (2R,3S,4S)-4-hydroxy-2-[(4-methoxyphenyl)methyl]pyrrolidin-3-yl N-{[(3R)-1-methylpyrrolidin-3-yl]methyl}carbamate], the concentration for half-maximal inhibition (IC50) with MYC was more than 30 µM; in the assay with CCND1 it was more than 30 µM; in the assay on CCNE1, more than 30 µM; in the assay on CCNTB1, 20 to 30 µM.

Regarding `COc1ccc(C[C@H]2NC[C@H](O)[C@H]2OC(=O)NCCC23CCCN2CCC3)cc1` [V188135, (2R,3S,4S)-4-hydroxy-2-[(4-methoxyphenyl)methyl]pyrrolidin-3-yl N-[2-(hexahydropyrrolizin-7a-yl)ethyl]carbamate], the concentration for half-maximal inhibition (IC50) in the assay on MYC was in the range of 10 to 20 µM; with CCND1 it was 20 to 30 µM; in the assay with CCNE1 it was 20 to 30 µM; in the assay on CCNTB1 it was 10 to 20 µM.

Turning to `COc1ccc(C[C@H]2NC[C@H](O)[C@H]2OC(=O)NCc2ccc(-c3ncc[nH]3)cc2)cc1` [V188144, (2R,3S,4S)-4-hydroxy-2-[(4-methoxyphenyl)methyl]pyrrolidin-3-yl N-{[4-(1H-imidazol-2-yl)phenyl]methyl}carbamate], the IC50 with MYC, in the assay with CCND1, in the assay with CCNE1 and with CCNTB1 was less than 10 µM in each case.

For `COc1ccc(C[C@H]2NC[C@H](O)[C@H]2OC(=O)NC[C@H]2C[C@@H](N)C2)cc1` [V188147, (2R,3S,4S)-4-hydroxy-2-[(4-methoxyphenyl)methyl]pyrrolidin-3-yl N-{[(1s,3s)-3-aminocyclobutyl]methyl}carbamate], the IC50 is less than 10 µM in the assay on MYC, 10 to 20 µM in the assay on CCND1, less than 10 µM in the assay with CCNE1 and less than 10 µM in the assay with CCNTB1.

`COc1ccc(C[C@H]2NC[C@H](O)[C@H]2OC(=O)NCc2ccc3[nH]cnc3c2)cc1` [V188150, (2R,3S,4S)-4-hydroxy-2-[(4-methoxyphenyl)methyl]pyrrolidin-3-yl N-(JH-1,3-benzodiazol-5-ylmethyl)carbamate]: the IC50 with MYC, in the assay on CCND1, in the assay with CCNE1 and with CCNTB1 was less than 10 µM throughout.

In the case of `COc1ccc(C[C@H]2NC[C@H](O)[C@H]2OC(=O)NCC2CCS(=O)(=O)C2)cc1` (stereo partly drawn) [V188154, (2R,3S,4S)-4-hydroxy-2-[(4-methoxyphenyl)methyl]pyrrolidin-3-yl N-[(1,1-dioxo-1lambda6-thiolan-3-yl)methyl]carbamate], the IC50 in the assay with MYC, with CCND1, in the assay on CCNE1 and in the assay with CCNTB1 was less than 10 µM each time.

As to `COc1ccc(C[C@H]2NC[C@H](O)[C@H]2OC(=O)NC[C@@H]2[C@@H]3CNC[C@@H]32)cc1` [V188161, (2R,3S,4S)-4-hydroxy-2-[(4-methoxyphenyl)methyl]pyrrolidin-3-yl N-[(1R,5S,6S)-3-azabicyclo[3.1.0]hexan-6-ylmethyl]carbamate], the IC50 is more than 30 µM in the assay on MYC, more than 30 µM in the assay on CCND1, 10 to 20 µM with CCNE1 and less than 10 µM in the assay with CCNTB1.

Regarding `COc1ccc(C[C@H]2NC[C@H](O)[C@H]2OC(=O)NCC(F)(F)CO)cc1` [V188164, (2R,3S,4S)-4-hydroxy-2-[(4-methoxyphenyl)methyl]pyrrolidin-3-yl N-(2,2-difluoro-3-hydroxypropyl)carbamate], the IC50 with MYC was more than 30 µM; with CCND1 it was more than 30 µM; in the assay with CCNE1, 20 to 30 µM; in the assay with CCNTB1 it was 10 to 20 µM.

On to `COc1ccc(C[C@H]2NC[C@H](O)[C@H]2OC(=O)NC[C@H]2CCN(c3nccs3)C2)cc1` [V188170, (2R,3S,4S)-4-hydroxy-2-[(4-methoxyphenyl)methyl]pyrrolidin-3-yl N-{[(3R)-1-(1,3-thiazol-2-yl)pyrrolidin-3-yl]methyl}carbamate], for which the IC50 with MYC was 10 to 20 µM; with CCND1 it was less than 10 µM; in the assay with CCNE1 it was less than 10 µM; with CCNTB1, less than 10 µM.

On to `COc1ccc(C[C@H]2NC[C@H](O)[C@H]2OC(=O)NCC2CCNCC2)cc1` [V188172, (2R,3S,4S)-4-hydroxy-2-[(4-methoxyphenyl)methyl]pyrrolidin-3-yl N-(piperidin-4-ylmethyl)carbamate], for which the concentration for half-maximal inhibition (IC50) in the assay on MYC, in the assay with CCND1, in the assay on CCNE1 and in the assay with CCNTB1 was more than 30 µM in each case.

On to `COc1ccc(C[C@H]2NC[C@H](O)[C@H]2OC(=O)NCCc2ccc(S(=O)(=O)F)cc2)cc1` [V188175, (2R,3S,4S)-4-hydroxy-2-[(4-methoxyphenyl)methyl]pyrrolidin-3-yl N-{2-[4-(fluorosulfonyl)phenyl]ethyl}carbamate], for which the IC50 in the assay with MYC is 10 to 20 µM; in the assay with CCND1, more than 30 µM; in the assay with CCNE1, 10 to 20 µM; in the assay with CCNTB1, less than 10 µM.

For orientation: IC50 means the midpoint of a concentration-inhibition curve.
